# Experimental data as given in patent US20220062247A1, “USE OF A PAR-1 ANTAGONIST FOR THE TREATMENT OF A CHRONIC INFLAMMATORY INTESTINAL DISEASE” (CVASTHERA, priority 2018, published 2022).
# How the values were obtained:
# [1] = system: inflammatory bowel disease, Dextran Sulphate sodium (DSS); assay: Dextran Sulphate sodium (DSS) model of inflammatory bowel disease in mice (body weight, DAI, macroscopic damage score, MPO); assay type: in vivo, mice (C57B16); parameters: Disease activity index, D1 / Disease activity index, D2 / Disease activity index, D3 / Disease activity index, D4 / Disease activity index, D5 / Disease activity index, D6 / Disease activity index, D7 / macroscopic damage score: scale not given here
# Excerpt: The purpose of this study is to assess the effectiveness of a PAR-1 antagonist according to the invention, 3-2-(chloro-phenyl)-1-[4-(4-fluoro-benzyl)-piperazine-1-yl]propenone (CSI) in a model of an inflammatory bowel disease, Dextran Sulphate sodium (DSS) in mice. This DSS model is described in the publication of Choi et al., 2010, in J. Biomed. Biotechnol., 2010:943516; doi: 10.1155/2010/943516.
# This model features a cytokine profile Th1 in its acute phase, periods of remission and relapses, it is consequently very similar to ulcerous colitis. The DSS distributed in the drinking water can cause an inflammation of the digestive tract and produce colorectal tumours in the rodent. The DSS is widely used as an animal model of human inflammatory diseases of the digestive tract.
# The present study is conducted in 7-week-old mice (C57B16). The 5-aminosalicylic acid serves as a positive comparative example.
# The first day of the study starts with the daily administration of a beverage containing DSS at 5% p/p in water to the mice, until the day of sacrifice. The development of the disease is estimated on a daily basis, with accurate weighting of the mice, the assessment of the consistence of the excrements as well as the presence of blood in the faeces with the Hemoccult® paper test. The DAI score is calculated as indicated in Example 1.
# Each day, groups of mice receive per os CSI at different concentrations, or 5-aminosalicylic acid (5-ASA), or the vehicle alone, that is to say carboxymethyl cellulose (CMC) at 1%.
# The mice are sacrificed 7 days after the beginning of the treatment. The colon is excised and the macroscopic damages are assessed. The colon is then cut into 4 pieces, the distal portion is placed in an Eppendorf tube and stored at −80° C. until the measurement of the activity of myeloperoxidase and the quantification of proteins. The proximal portion is kept in formaline at 10% for future histological analyses. The two other central portions are placed in Eppendorf tubes and stored at −80° C. for future analyses.
# On day 7, after having sacrificed the animals, the colon is removed. The macroscopic damage score, assessed as described in Example 1, and the myeloperoxidase (MPO) activity are determined.
# [2] = system: inflammatory bowel disease induced by 2,4,6-trinitrobenzenesulfonic acid (TNBS); assay: Colitis induced by intra-colonical TNBS in rats (body weight, DAI score, colon wall thickness, macroscopic damage score, MPO); assay type: in vivo, male laboratory rat of the Wistar strain
# Excerpt: The purpose of this study is to assess the effectiveness of two PAR-1 antagonists, vorapaxar and 3-2-(chloro-phenyl)-1-[4-(4-fluoro-benzyl)-piperazine-1-yl]propenone (hereinafter, referred to as CSI) in a model of an inflammatory bowel disease induced by 2,4,6-trinitrobenzenesulfonic acid (TNBS) in a male laboratory rat of the Wistar strain. This model is described in the publication of Whittle et al., 2003, in Methods Mol. Biol., 225, 209-222.
# In this induced colitis model, the inflammatory reaction is measured every day and is well established 7 days after intra-colonical administration of TNBS.
# (§1) Different parameters are measured: the weight of the rats, the presence of blood in the faeces and the diarrhoeas assessed by the disease activity index (DAI score), the intensity of pain (assessed by Von Frey filaments technique measured on days 3 and 7).
# The rats are sacrificed 7 days after the beginning of the treatment and the macroscopic damages, the oedema and a marker of the inflammation, myeloperoxidase (MPO), are quantified.
# The experiments with the PAR-1 antagonists are carried out in two studies, relating to vorapaxar and CSI, respectively.
# The colitis is induced by intra-colonical administration of 2,4,6-trinitrobenzenesulfonic acid (TNBS) (30 mg of TNBS in 0.25 ml of a 50% ethanol/NaCl solution) via a catheter (polyethylene (PE)-60) inserted 8 cm proximally from the anus.
# Four groups of 10 rats receive an intra-colonical administration of TNBS, as well as a per os treatment of vorapaxar at the dose of 2.5 mg/kg/day or of CSI at doses of 10 and 40 mg/kg/day or of prednisolone (a compound proposed by the prior art for the treatment of IBDs) at the dose of 3 mg/kg/day. The per os treatments start 1 h before the intra-colonical administration of TNBS.
# As a negative comparative example, 1 group of 10 rats receives an intra-colonical administration of TNBS and of the vorapaxar vehicle (phosphate buffered saline—PBS) or of the CSI vehicle (carboxymethyl cellulose—CMC at 1%) per os daily.
# Moreover, 1 group of 6 control rats receives an intra-colonical administration of NaCl instead of TNBS.
# The DAI score is determined as follows. The development of the disease is estimated on a daily basis. The consistence of the excrements, as well as the presence of blood in the faeces assessed with the Hemoccult® paper test, are respectively quantified by the seriousness scales of Table 3 hereinbelow. The obtained values are added together to obtain the DAI score.
# The macroscopic damage score is assessed according to the protocol described in the publication of Comera et al., 1999, Dig. Dis. Sci. 44: 1448-1457, as follows. On day 7 after induction of the colitis, the rats are sacrificed by carbon dioxide CO2 inhalation, the colon (from the anus to the Caecum) is removed and the macroscopic damages are assessed according to the parameters observed and presented in Table 4 hereinbelow, to determine the macroscopic damage score.
# [3] = system: nociceptive response induced by TNBS; assay: Nociceptive response (allodynia) by Von Frey filaments technique in TNBS colitis rats; assay type: in vivo, rat; conditions: 3 mg/kg/day, 7 days after colitis induction
# Description: as §1
# The intensity of the pain is measured by the Von Frey filaments technique on days […], according to the protocol described in the publication of Auge et al., 2013, Eur. J. Pharmacol. 707: 32-40.
# The effect on the nociceptive response, measured by Von Frey filaments technique according to the mass of Von Frey filaments, is shown in FIG. 10 for prednisolone and in FIG. 11 for vorapaxar.
# [4] = DSS 5%, Group 5, 50 mg/kg/24 h per os, Moy
# [5] = DSS mice, 50 mg/kg daily oral (Group 5), all observed points
# [6] = DSS 5%, Group 2, 10 mg/kg/24 h per os, Moy
# [7] = DSS 5%, Group 3, 40 mg/kg/24 h per os, Moy
smiles,measurement,setting,value
"Nc1ccc(O)c(C(=O)O)c1 [5-ASA, 5-aminosalicylic acid, reference compound]","Disease activity index, D1",[1]; [4],1.64
same,"Disease activity index, D2",[1]; [4],1.25
same,"Disease activity index, D3",[1]; [4],1.92
same,"Disease activity index, D4",[1]; [4],3.50
same,"Disease activity index, D5",[1]; [4],4.00
same,"Disease activity index, D6",[1]; [4],4.00
same,"Disease activity index, D7",[1]; [4],3.20
same,"Variation of the body weight of the mice in comparison with day D0, D1-D0",[1]; [4],0.64 g
same,"Variation of the body weight of the mice in comparison with day D0, D2-D0",[1]; [4],0.64 g
same,"Variation of the body weight of the mice in comparison with day D0, D3-D0",[1]; [4],1.05 g
same,"Variation of the body weight of the mice in comparison with day D0, D4-D0",[1]; [4],-0.03 g
same,"Variation of the body weight of the mice in comparison with day D0, D5-D0",[1]; [4],-1.67 g
same,"Variation of the body weight of the mice in comparison with day D0, D6-D0",[1]; [4],-3.68 g
same,"Variation of the body weight of the mice in comparison with day D0, D7-D0",[1]; [4],-4.76 g
same,macroscopic damage score,"[1]; DSS 5%, Group 5, 50 mg/kg/24 h per os, day 7, Moy",6.5
same,MPO activity,"[1]; DSS 5%, Group 5, 50 mg/kg/24 h per os, day 7, colon, Moy",9.34 mU/mg proteins
same,macroscopic damage score,"[1]; DSS mice, 50 mg/kg (Group 5), vs vehicle group (Group 4)",significantly reduces
same,increase of the disease activity index,[1]; [5],prevents neither
same,weight loss,[1]; [5],prevents neither
"O=C(/C=C/c1ccccc1Cl)N1CCN(Cc2ccc(F)cc2)CC1 [CSI, 3-2-(chloro-phenyl)-1-[4-(4-fluoro-benzyl)-piperazine-1-yl]propenone]",disease activity index (DAI),"[2]; 10 mg/kg daily, 7th day",significantly reduces
same,MPO activity,"[2]; 40 mg/kg/day, day 7",significantly reduced
same,macroscopic damage score,"[2]; 10 and 40 mg/kg/day (tested doses), day 7, vs vehicle group",significantly reduces
same,weight loss (body weight),[2]; 10 or 40 mg/kg/day per os,alleviate
same,"Disease activity index, D1",[1]; [6],1.40
same,"Disease activity index, D2",[1]; [6],1.35
same,"Disease activity index, D3",[1]; [6],2.00
same,"Disease activity index, D4",[1]; [6],3.75
same,"Disease activity index, D5",[1]; [6],4.00
same,"Disease activity index, D6",[1]; [6],4.00
same,"Disease activity index, D7",[1]; [6],2.90
same,"Variation of the body weight of the mice in comparison with day D0, D1-D0",[1]; [6],0.67 g
same,"Variation of the body weight of the mice in comparison with day D0, D2-D0",[1]; [6],0.44 g
same,"Variation of the body weight of the mice in comparison with day D0, D3-D0",[1]; [6],0.45 g
same,"Variation of the body weight of the mice in comparison with day D0, D4-D0",[1]; [6],-0.42 g
same,"Variation of the body weight of the mice in comparison with day D0, D5-D0",[1]; [6],-2.15 g
same,"Variation of the body weight of the mice in comparison with day D0, D6-D0",[1]; [6],-3.79 g
same,"Variation of the body weight of the mice in comparison with day D0, D7-D0",[1]; [6],-5.19 g
same,macroscopic damage score,"[1]; DSS 5%, Group 2, 10 mg/kg/24 h per os, day 7, Moy",5.2
same,MPO activity,"[1]; DSS 5%, Group 2, 10 mg/kg/24 h per os, day 7, colon, Moy",12.99 mU/mg proteins
same,"Disease activity index, D1",[1]; [7],2.00
same,"Disease activity index, D2",[1]; [7],1.10
same,"Disease activity index, D3",[1]; [7],1.50
same,"Disease activity index, D4",[1]; [7],2.80
same,"Disease activity index, D5",[1]; [7],4.00
same,"Disease activity index, D6",[1]; [7],4.00
same,"Disease activity index, D7",[1]; [7],3.00
same,"Variation of the body weight of the mice in comparison with day D0, D1-D0",[1]; [7],-0.08 g
same,"Variation of the body weight of the mice in comparison with day D0, D2-D0",[1]; [7],-0.07 g
same,"Variation of the body weight of the mice in comparison with day D0, D3-D0",[1]; [7],-0.19 g
same,"Variation of the body weight of the mice in comparison with day D0, D4-D0",[1]; [7],-0.68 g
same,"Variation of the body weight of the mice in comparison with day D0, D5-D0",[1]; [7],-1.07 g
same,"Variation of the body weight of the mice in comparison with day D0, D6-D0",[1]; [7],-2.69 g
same,"Variation of the body weight of the mice in comparison with day D0, D7-D0",[1]; [7],-4.00 g
same,macroscopic damage score,"[1]; DSS 5%, Group 3, 40 mg/kg/24 h per os, day 7, Moy",4.0
same,MPO activity,"[1]; DSS 5%, Group 3, 40 mg/kg/24 h per os, day 7, colon, Moy",6.9 mU/mg proteins
same,disease activity index,"[1]; DSS mice, 10 mg/kg daily (Group 2), 7th day",significantly reduces
same,MPO activity,"[1]; DSS mice, 40 mg/kg (Group 3)",strongly reduced
same,disease activity index,"[1]; DSS mice, 40 mg/kg (Group 3), 4th and 7th day, vs vehicle group (Group 4)",significantly reduced
same,weight loss,"[1]; DSS mice, 40 mg/kg (Group 3), 6th day",significantly reduces
same,daily signs of colitis,"[1]; DSS mice, 10 and 40 mg/kg, seems more effective than 5-ASA","reduces, significantly and in a dose-dependent way"
same,macroscopic damage score,"[1]; DSS mice, both tested doses 10 and 40 mg/kg (Groups 2 and 3), vs vehicle group (Group 4)",significantly reduces
C[C@]12C=CC(=O)C=C1CC[C@@H]1[C@@H]2[C@@H](O)C[C@@]2(C)[C@H]1CC[C@]2(O)C(=O)CO [prednisolone],apparition of oedema (thickness of the wall of the colon),"[2]; 3 mg/kg daily oral, 7 days",does not prevent
same,disease activity index (DAI),"[2]; 3 mg/kg daily oral, all observed points",does not prevent the increase
same,macroscopic damage score,"[2]; 3 mg/kg, day 7, vs vehicle group",significantly reduces
same,weight loss (body weight),[2]; 3 mg/kg/day per os,alleviate
same,MPO activity,"[2]; 3 mg/kg/day, day 7, vs vehicle group",significantly reduce
same,allodynia-type response (Von Frey),[3],only a partial inhibition
